Laboratory results as given in paper PMC7463460, “Structure and Antiparasitic Activity Relationship of Alkylphosphocholine Analogues against Leishmania donovani” (Microorganisms, 2020).
Where “and” joins values, the source holds several entries; their conditions need not be identical. Equal values may be shown once.

Key:
[1] = tested on: L. donovani 275/18 (Sb-resistant) intracellular amastigotes; experiment: Intracellular amastigote assay, Sb-resistant strain 275/18; type: cell-based, Leishmania donovani; details: for IC50: Leishmania donovani, read-out: Mean IC50 Amastigotes; for Cross-Resistance Index (CRI50) Amast: strain 275/18, Sb-resistant vs Sb-S; for Selectivity Index (SI50): strain 275/18, Sb-resistant, macrophage CC50 / amastigote IC50
Excerpt: L. donovani cloned strains with different Sb susceptibility backgrounds were derived from isolates obtained from VL patients at the B.P. Koirala Institute of Health Sciences, Dharan, Nepal: MHOM/NP/02/BPK282/0cl4 (Sb sensitive, Sb-S). MHOM/NP/02/BPK087/0cl11 (Sb intermediate, Sb-I) and MHOM/NP/02/BPK275/0cl18 (Sb resistance, Sb-R [13]). In addition, Milt-resistant parasites raised against these three Sb sensitivity backgrounds and the Sb-sensitive strain (MHOM/ET/67:LV82) was also used in studies. Luciferase expressing promastigotes for the LV82 and Nepalese strains were prepared using previously published methods and the integrative construct (a gift from Dr D.F. Smith), designated pGL1313, contained pSSU-int fragments to facilitate integration into the ribosomal RNA locus of Leishmania.
In the macrophage studies, the method described in previous studies was used as follows. Briefly, bone-marrow-derived BALB/c macrophages (1–2 × 10^5) in 100 µL complete RPMI 1640 medium were added to the wells of a 96 well plate and left to adhere for 24 h at 37 °C, 5% CO₂/95% air. The medium was removed and 100 µL of the appropriate L. donovani luciferase-expressing promastigotes line (parasite: host cell ratio 1:10, 1:20 or 1:40) was added to each well, the ratio used reflected the infectivity of the strain and ensured that control data gave a bioluminescent signal within the same range. […] The variability in infectivity complicates strain to strain comparisons, but we decided to focus on achieving good infection levels in controls so that the effect of drug treatment could be determined. It is possible that intracellular macrophage parasites could have been at different developmental stages at 24 h post-infection. […] Therefore, we assumed that the effect of compounds on the amastigote stage rather than the promastigotes stage was determined in in vitro macrophage studies.
The plate was incubated for a further 24 h, the medium removed, and each well washed with PBS to eliminate non-internalized parasites, which were monitored microscopically. When the wells were devoid of external parasites, 100 µL of the medium alone (control) or appropriate APC compound was then added (0.01–0.197 µg/mL, n = 3/treatment). […]. All plates were incubated for 72 h at 37 °C, 5% CO₂/95% air. Wells with macrophage and with no drug or promastigotes added were used in control experiments.
Luciferin solution (1 µg/mL in 20 µL medium without FCS) was added to the appropriate wells of the 96-well plate at the end of the experiment and the amount of light emitted/well was measured using a luminometer (Biotek Synergy HT, relative light units) using a wavelength/bandwidth of 440/40 nm, or IVIS® imaging (Spectrum Living Image system®, total flux, photons/sec).
The effect of drug treatment on parasite survival was determined by calculating the mean suppression in the light emitted from the drug-treated experimental sample compared to the mean control value and used to calculate the IC50 using Grafit® software (version 5.0, Erithacus Software, East Grinstead, West Sussex, UK). The effect of drug alone on the viability of uninfected macrophages was determined using the same experimental protocol above, but cell viability was determined using an alamar blue colorimetric assay. At the end of the incubation period, cells’ 10 µL resazurin solution (0.02% w/v) was added to control and drug treated cells and the absorbance of samples was read at 575 and 595 nm. The effect of drug treatment on cell survival, which correlates with the magnitude of dye reduction, was expressed as percentage viability (or alamar blue reduction) and determined using the formula provided in the manufacturer’s protocol % alamar blue reduction=(εoxλ)(Aλ1)−(εoxλ1)(Aλ2)/(εredλ1)(A^′λ2)−(εredλ2)(A^′λ1)x100 […]

[2] = tested on: L. donovani strain LV82; experiment: Murine VL model, parasite burdens in spleen, liver and bone marrow; type: in vivo, Leishmania donovani in BALB/c mice
Procedure: BALB/c mice were infected by intravenous injection (tail vein, no anesthetic) with 1–2 × 10^7 L. donovani strain LV82 amastigote parasites, obtained from the spleen of an infected hamster. Mice (n = 4/treatment) were treated with PBS pH 7.4 (controls) or APC12 (40 or 80 mg/kg) by intravenous injection (tail vein, no anesthetic, 0.2 mL) on days 7 and 8 post-infection or a single oral dose on day 7 post-infection. Milt was not given orally at a dose of 80 mg/kg because of its potential toxicity. On day 14, parasite burdens in the liver, spleen and bone marrow were determined. Results are from duplicate experiments, however, if a treatment had no significant effect then it […] in subsequent experiments.

[3] = tested on: visceral leishmaniasis; details: VL monotherapy, Nepal, 12 months post-treatment; cited from earlier work
[4] = two-component population PK model; listed as Milt; cited from earlier work
[5] = 40 mg/kg IV, assessed day 14, Experiment 2
[6] = 40 mg/kg oral, day 7 post-infection, assessed day 14, Experiment 1
[7] = 80 mg/kg oral, assessed day 14, Experiment 2

| Compound | IC50 [1] | Cross-Resistance Index (CRI50) Amast [1] | Selectivity Index (SI50) [1] | Mean Parasite Burden ± SD Bone Marrow [2, 6] | Mean Parasite Burden ± SD Liver [2, 6] | Mean Parasite Burden ± SD Spleen [2, 6] | mean percentage suppression ± SD in parasite burden, Bone Marrow [2, 6] | mean percentage suppression ± SD in parasite burden, Liver [2, 6] | mean percentage suppression ± SD in parasite burden, Spleen [2, 6] | further results |
| --- | --- | --- | --- | --- | --- | --- | --- | --- | --- | --- |
| CCCCCCCCCCCCOP(=O)([O-])OCC[N+](C)(C)C [APC12, dodecylphosphocholine] | 0.23 µg/mL and 650 nM | 0.88 | 153.83 | 210 ± 90 | 880 ± 276 | 275 ± 96 | 54 ± 34% | 36 ± 34% | 8 ± 18% | Mean Parasite Burden ± SD Bone Marrow [2, 5]: 555 ± 254; Mean Parasite Burden ± SD Liver [2, 5]: 434 ± 197; Mean Parasite Burden ± SD Spleen [2, 5]: 112 ± 30; mean percentage suppression ± SD in parasite burden, Bone Marrow [2, 5]: 8 ± 14%; mean percentage suppression ± SD in parasite burden, Liver [2, 5]: 60 ± 11% and 60 ± 19%; mean percentage suppression ± SD in parasite burden, Spleen [2, 5]: 60 ± 19% and 60 ± 11%; Mean Parasite Burden ± SD Bone Marrow [2, 7]: 607 ± 115; Mean Parasite Burden ± SD Liver [2, 7]: 939 ± 170; Mean Parasite Burden ± SD Spleen [2, 7]: 257 ± 73; mean percentage suppression ± SD in parasite burden, Bone Marrow [2, 7]: 2 ± 4%; mean percentage suppression ± SD in parasite burden, Liver [2, 7]: 27 ± 16%; mean percentage suppression ± SD in parasite burden, Spleen [2, 7]: 13 ± 27% |
| CCCCCCCCCCCCCCOP(=O)([O-])OCC[N+](C)(C)C [APC14, tetradecylphosphocholine] | 0.28 µg/mL and 740 nM | 2.33 | 146.04 | – | – | – | – | – | – | – |
| CCCCCCCCCCCCCCCCOP(=O)([O-])OCC[N+](C)(C)C [APC16, hexadecylphosphocholine, reference compound] | 0.51 µg/mL and 1.25 µM | – | – | 197 ± 157 | 433 ± 46 | 73 ± 68 | 30 ± 35% | 40 ± 25% | 53 ± 31% | relapse rate [3]: 20%; threshold concentration between non-saturable and saturable component [4]: 50 μM and 20.4 μg/mL |
